Laboratory results as given in patent US20220214363A1, “NOVEL LIGAND ASSAYS” (InsituGen Limited, priority 2019, published 2022).

Biological target: T1, AR (Homo sapiens, UniProt P10275)
T1 sequence (P10275 1-920): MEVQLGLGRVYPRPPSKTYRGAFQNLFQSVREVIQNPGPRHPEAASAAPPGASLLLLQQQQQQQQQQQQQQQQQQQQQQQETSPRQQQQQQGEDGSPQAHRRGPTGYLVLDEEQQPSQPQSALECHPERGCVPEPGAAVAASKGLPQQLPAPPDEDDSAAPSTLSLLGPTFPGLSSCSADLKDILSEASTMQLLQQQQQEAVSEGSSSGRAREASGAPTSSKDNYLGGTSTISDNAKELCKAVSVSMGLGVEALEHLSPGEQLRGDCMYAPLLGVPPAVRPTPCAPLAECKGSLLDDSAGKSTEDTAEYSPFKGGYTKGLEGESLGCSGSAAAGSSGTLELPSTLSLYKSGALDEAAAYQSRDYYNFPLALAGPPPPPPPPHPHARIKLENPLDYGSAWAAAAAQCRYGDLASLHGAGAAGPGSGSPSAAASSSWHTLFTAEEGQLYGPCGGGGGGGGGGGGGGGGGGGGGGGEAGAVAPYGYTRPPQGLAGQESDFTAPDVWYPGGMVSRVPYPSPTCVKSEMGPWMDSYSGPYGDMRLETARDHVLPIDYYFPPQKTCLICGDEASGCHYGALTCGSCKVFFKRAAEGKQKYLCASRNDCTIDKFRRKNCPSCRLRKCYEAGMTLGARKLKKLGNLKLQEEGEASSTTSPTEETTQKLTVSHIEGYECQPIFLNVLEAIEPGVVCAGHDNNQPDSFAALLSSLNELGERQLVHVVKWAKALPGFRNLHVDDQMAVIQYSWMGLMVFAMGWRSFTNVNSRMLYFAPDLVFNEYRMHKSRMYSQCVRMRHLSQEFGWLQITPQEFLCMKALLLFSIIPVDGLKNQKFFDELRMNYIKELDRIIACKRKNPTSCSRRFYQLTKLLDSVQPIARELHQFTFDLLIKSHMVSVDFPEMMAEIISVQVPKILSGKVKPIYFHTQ
Details: gelding urine sample spiked with trenbolone before deconjugation and extraction; vs ethanol control set at 100%
From the text: Spiked trenbolone represents a gelding urine sample that had been spiked with trenbolone before the deconjugation and extraction steps. T7 activity measured for the ethanol control was arbitrarily set at 100%.
Racehorse urine samples were collected on race day and steroids deconjugated and extracted using routine processes. The extracted steroids were resuspended in ethanol and subjected to the assay.

Structure (SMILES): C[C@]12C=CC3=C4CCC(=O)C=C4CCC3C1CC[C@@H]2O (stereo partly shown) [trenbolone]
- suppression of T7-generated Mango II: suppression of T7-generated Mango II
